According to patent US20020028807A1, “Non-nucleoside reverse transcriptase inhibitors” (priority 2000, published 2002):

Experiments:
[1] = target: T1, HIV-1 RT wild-type (WT) (Human immunodeficiency virus type 1 group M subtype B, UniProt P03366); assay: Reverse transcriptase (RT) assay, wild-type enzyme; type: biochemical
T1 construct: an HIV RT clone pKRT2 containing only the RT p66 gene regulated by the lac operon/trc promoter; made in house; host or cells: E. coli JM109, vector pKK233-2
Description: (§1) Among the enzymes for which Human Immunodeficiency Virus (HIV-1) encodes is a reverse transcriptase (1), so-named because it transcribes a DNA copy from an RNA template. This activity can be quantitatively measured in a cell-free enzyme assay and is based upon the observation that reverse transcriptase is able to use a synthetic template poly r(C) primed with a biotinylated oligo d(G) to transcribe a radio-labelled DNA strand utilising 3H-dGTP as a substrate. The assay described below utilises the wild-type enzyme (which is the predominant form of the enzyme observed in patients infected with HIV-1) and can also be used with mutant RT enzymes (for example, Y181C, prepared by site-directed mutagenesis in which the tyrosine residue at codon 181 has been replaced by a cysteine residue) in analogous assay conditions. This assay allows compounds to be evaluated for their effectiveness at inhibiting the mutant enzymes.
(§2) Some HIV-1 IIIB clone BH10 RT mutants were provided by Dr. C.-K. Shih (Boehringer Ingelheim Pharmaceutials Inc., U.S.A.) in the vector pKK233-2 (Pharmacia). Briefly an HIV RT clone pKRT2 containing only the RT p66 gene regulated by the lac operon/trc promoter was obtained from Dr. W. Summers (Yale University) (2). A variety of specific amino acid substitutions were introduced into the wild-type RT gene by site-directed mutagenesis. RT clones were subcloned into the pKK233-2 bacterial expression vector. Clones provided included wild-type, Val106Ala, Tyr181Cys, Tyr188Cys, Tyr188Leu, Gly190Ala and Pro236Leu. Others were made in-house by site-directed mutagenesis of the pKK233-2 RT clones including Lys103Asn, Lys103Asn/Tyr181Cys, Lys103Asn/Leu100Ile, Lys103Asn/Pro225His, and Lys103Asn/Val108Ile.
(§3) Purification of recombinant reverse transcriptase was performed using a combination of methods previously described (3). A single colony from a fresh plate of transformed JM109 cells was used to initiate growth of a pre-culture grown o/n at 37° C. Two liters of growth medium were inoculated with this pre-culture. At OD600˜1.5 (5-6 h at 37° C.), RT gene expression was induced with IPTG (1 mM final), and the fermentation was continued for a few more hours at 37° C. After centrifugation, supernatants were discarded while cell pellets were pooled and stored at −80° C. until purification. Cells were thawed at 4° C. overnight and suspended in lysis buffer (MES 50 mM pH 6, EDTA 1 mM, 10% v/v glyerol, 0.02% w/v OBG, 0.02% w/v sodium azide). Lysozyme was added and the mixture was incubated on ice for 40 minutes. After homogenization using a bounce in presence of lysozyme and sonication, the cells were centrifuged for 30 minutes. Supernatant (S1) was saved and stored at 4° C. The centrifuged pellet was resuspended in extraction buffer (MES 50 mM pH 6, KPO4 50 mM pH 6, KCl 100 mM, 10% v/v glycerol, 0.02% w/v OBG, 0.02% w/v sodium axide) and stirred for 30 minutes at 4° C. This second mixture was centrifuged again and the supernatant (S2) was saved. The above procedure was repeated 2 more times saving supernatants S3 and S4 and one last extraction was performed overnight (S5). Polymin P (0.005% final) was added to the combined supernatants to remove nucleic acids. This solution was stirred for 75 minutes at 4° C. and centrifuged for 1 h. The supernatant (SS1) was precipitated on ice with 20% w/v ammonium sulfate and stirred for 1 h at 4° C. The mixture was then centrifuged and the resulting supernatant (SS2) was precipitated with additional 40% w/v ammonium sulfate (60% total), stirred for 1 h and centrifuged again. The final pellet (P1) was stored overnight at 4° C. before undergoing purification the following day. All steps of the purification were performed at 4° C. unless otherwise stated.
(§4) Pellet (P1) was resuspended into MES 50 mM pH 6, KPO4 10 mM pH 6, KCl 100 mM, 10% v/v glycerol, 0.02% w/v OBG, 0.02% w/v sodium azide. The suspension was dialysis against the same buffer overnight using 12-14 kD MWCO dialysis tubing. […]

[2] = target: T2, HIV-1 RT K103N (Human immunodeficiency virus type 1 group M subtype B, UniProt P03366, K702N); assay: Reverse transcriptase (RT) assay, K103N mutant; type: biochemical
T2 construct: an HIV RT clone pKRT2 containing only the RT p66 gene regulated by the lac operon/trc promoter; made in house; host or cells: E. coli JM109, vector pKK233-2
Description: as §1, §2, §3, §4

[3] = target: T3, HIV-1 RT Y181C (Human immunodeficiency virus type 1 group M subtype B, UniProt P03366, Y780C); assay: Reverse transcriptase (RT) assay, Y181C mutant; type: biochemical
T3 construct: an HIV RT clone pKRT2 containing only the RT p66 gene regulated by the lac operon/trc promoter; made in house; host or cells: E. coli JM109, vector pKK233-2
Description: as §1, §2, §3, §4

[4] = target: T4, HIV-1 RT V106A (Human immunodeficiency virus type 1 group M subtype B, UniProt P03366, V705A); assay: Reverse transcriptase (RT) assay, V106A mutant; type: biochemical
T4 construct: an HIV RT clone pKRT2 containing only the RT p66 gene regulated by the lac operon/trc promoter; made in house; host or cells: E. coli JM109, vector pKK233-2
Description: as §1, §2, §3, §4

[5] = target: T5, HIV-1 RT P23L (Human immunodeficiency virus type 1 group M subtype B, UniProt P03366, P835L); assay: Reverse transcriptase (RT) assay, P23L mutant; type: biochemical
T5 construct: an HIV RT clone pKRT2 containing only the RT p66 gene regulated by the lac operon/trc promoter; made in house; host or cells: E. coli JM109, vector pKK233-2
Description: as §1, §2
Purification of recombinant reverse transcriptase was performed using a combination of methods previously described (3). A single colony from a fresh plate of transformed JM109 cells was used to initiate growth of a pre-culture grown o/n at 37° C. Two liters of growth medium were inoculated with this pre-culture. At OD600˜1.5 (5-6 h at 37° C.), RT gene expression was induced with IPTG (1 mM final), and the fermentation was continued for a few more hours at 37° C. After centrifugation, supernatants were discarded while cell pellets were pooled and stored at −80° C. until purification. Cells were thawed at 4° C. overnight and suspended in lysis buffer (MES 50 mM pH 6, EDTA 1 mM, 10% v/v glyerol, 0.02% w/v OBG, 0.02% w/v sodium azide). Lysozyme was added and the mixture was incubated on ice for 40 minutes. After homogenization using a bounce in presence of lysozyme and sonication, the cells were centrifuged for 30 minutes. Supernatant (S1) was saved and stored at 4° C. […]

[6] = target: T6, HIV-1 RT Y188L (Human immunodeficiency virus type 1 group M subtype B, UniProt P03366, Y787L); assay: Reverse transcriptase (RT) assay, Y188L mutant; type: biochemical
T6 construct: an HIV RT clone pKRT2 containing only the RT p66 gene regulated by the lac operon/trc promoter; made in house; host or cells: E. coli JM109, vector pKK233-2
Description: as §1, §2, §3, §4

[7] = target: T7, HIV-1 RT G190A (Human immunodeficiency virus type 1 group M subtype B, UniProt P03366, G789A); assay: Reverse transcriptase (RT) assay, G190A mutant; type: biochemical
T7 construct: an HIV RT clone pKRT2 containing only the RT p66 gene regulated by the lac operon/trc promoter; made in house; host or cells: E. coli JM109, vector pKK233-2
Description: as §1, §2, §3, §4

[8] = target: T8, HIV-1 RT K103N/Y181C (Human immunodeficiency virus type 1 group M subtype B, UniProt P03366, K702N/Y780C); assay: Reverse transcriptase (RT) assay, K103N/Y181C mutant; type: biochemical
T8 construct: an HIV RT clone pKRT2 containing only the RT p66 gene regulated by the lac operon/trc promoter; made in house; host or cells: E. coli JM109, vector pKK233-2
Description: as §1, §2, §3, §4

[9] = target: T9, HIV-1 RT K103N/P225H (Human immunodeficiency virus type 1 group M subtype B, UniProt P03366, K702N/P824H); assay: Reverse transcriptase (RT) assay, K103N/P225H mutant; type: biochemical
T9 construct: an HIV RT clone pKRT2 containing only the RT p66 gene regulated by the lac operon/trc promoter; made in house; host or cells: E. coli JM109, vector pKK233-2
Description: as §1, §2, §3, §4

[10] = target: T10, HIV-1 RT Y188C (Human immunodeficiency virus type 1 group M subtype B, UniProt P03366, Y787C); assay: Reverse transcriptase (RT) assay, Y188C mutant; type: biochemical
T10 construct: an HIV RT clone pKRT2 containing only the RT p66 gene regulated by the lac operon/trc promoter; made in house; host or cells: E. coli JM109, vector pKK233-2
Description: as §1, §2, §3, §4

[11] = target: T11, HIV-1 RT K103N/V108I (Human immunodeficiency virus type 1 group M subtype B, UniProt P03366, K702N/V707I); assay: Reverse transcriptase (RT) assay, K103N/V108I mutant; type: biochemical
T11 construct: an HIV RT clone pKRT2 containing only the RT p66 gene regulated by the lac operon/trc promoter; made in house; host or cells: E. coli JM109, vector pKK233-2
Description: as §1, §2, §3, §4

[12] = target: T12, HIV-1 RT K103N/L100I (Human immunodeficiency virus type 1 group M subtype B, UniProt P03366, K702N/L699I); assay: Reverse transcriptase (RT) assay, K103N/L100I mutant; type: biochemical
T12 construct: an HIV RT clone pKRT2 containing only the RT p66 gene regulated by the lac operon/trc promoter; made in house; host or cells: E. coli JM109, vector pKK233-2
Description: as §1, §2, §3, §4

[13] = tested on: HIV coding for wild-type reverse transcriptase (WT RT); assay: ELISA (p24) assay of HIV replication in C8166 cell culture, wild-type RT virus; type: cell-based, HIV-1; settings: Human immunodeficiency virus 1, C8166, 72 h, read-out: EC50 WT RT
Method: Compounds of the invention were tested for their ability to inhibit HIV replication in cell culture in a 96-well plate assay. Complete RPMI 1640, consisting of RPMI 1640+10% fetal bovine serum, 10 μg/ml gentamycin and 10 μM β-mercaptoethanol was used for dilution of the compound as well as cell growth medium. The T lymphocyte cell line C8166 was infected at a multiplicity of infection of 0.001 with viruses coding for wild-type and mutant reverse transcriptase. Cells were then incubated for three days in the presence of serial dilutions of the compounds of the invention. The supernatant was pooled from eight replica wells and the concentration of extracellular p24 was determined using a commercially available HIV-1 p24 antigen assay kit (Beckman-Coulter®). The level of inhibition (% inhibition) was calculated with the following equation: [formula]

## CCN1c2ncc(CCOc3ccnc4ccccc34)cc2C(=O)N(C)c2ccc(Cl)nc21 [compound 2, 2-Chloro-5,11-dihydro-11-ethyl-5-methyl-8-{2-(4-quinolinyloxy)ethyl}-6H-dipyrido[3,2-b:2′,3′-e][1,4]diazepin-6-one]
[1]
  IC50: 5.5 nM
[2]
  IC50: 28.5 nM
[3]
  IC50: 25 nM
[4]
  IC50: 148 nM
[5]
  IC50: 50.5 nM
[6]
  IC50: 258 nM
[7]
  IC50: 14.5 nM
[8]
  IC50: 24.5 nM
[9]
  IC50: 27 nM
[10]
  IC50: 7.1 nM
[11]
  IC50: 31 nM
[12]
  IC50: 46 nM
[13]
  EC50: 2.2 nM
